According to patent publication US20230390171A1, “DEODORANT COMPOSITIONS COMPRISING LIPOPHILIC CARBOXYLIC ACIDS” (The Procter & Gamble Company, priority 2022, published 2023):
Values after ≈ are worked out from the molar mass of the structure shown. Like-named read-outs stand apart in the source and are kept apart here.

Tests used:
[1] = test system: S. epi; assay: Minimum Inhibitory Concentration (MIC) of various carboxylic acids; format: cell-based; details: for potential to inhibit bacteria at an acidic pH: Table 1
Method: The following MIC (Minimum Inhibitory Concentration) was done on various carboxylic acids. […] In this case, the MIC was tested in two different growth media. […] The MIC or minimum inhibitory concentration test determines antimicrobial activity of a material against a specific bacteria. The most commonly employed methods are the tube dilution method and agar dilution method. Test products that are not clear or precipitate the growth media are tested by agar dilution method which is similar to the tube dilution method except dilutions are plated on agar. The tube dilution test is the standard method for determining levels of microbial resistance to an antimicrobial agent. Serial dilutions of the test agent are made in a liquid microbial growth medium which is inoculated with a standardized number of organisms and incubated for a prescribed time. The lowest concentration (highest dilution) of test agent preventing appearance of turbidity (growth) is considered to be the minimal/minimum inhibitory concentration (MIC). At this dilution the test agent is bacteriostatic.

[2] = test system: S. epidermidis; assay: Finished Product Soleris Method (detection time, resistance to growth of bacteria); format: cell-based; details: Table 3; 1.5% acid in clear gel, 1:10 dilution
Method: The products shown in examples 1-14 in Table 2 were tested for their resistance to the growth of bacteria by the Finished Product Soleris Method in a 1:10 dilution with artificial eccrine, pH 6, non-stabilized as provided by Pickering Solutions.
The products shown in examples 15-30 in Table 5 were tested for their resistance to the growth of bacteria by the Finished Product Soleris Method in a 1:10 dilution with artificial eccrine, pH 6, non-stabilized as provided by Pickering Solutions.
The products shown in examples 31-34 in table 8 were tested for their resistance to the growth of bacteria by the Finished Product Soleris Method in a 1:10 dilution with artificial eccrine, pH 6, non-stabilized as provided by Pickering Solutions.
Sample preparation is done in the following manner. The product to be tested is weighed into a vial at a ratio of 1 part product to 10 parts Artificial Eccrine, custom pH 6, non-stabilized as obtained by Pickering Laboratories (cat. No. 1700-0023). In some cases where products have a higher hostility, the dilution in a particular study may be 1 part deodorant product to 100 parts Artificial Eccrine, custom pH 6, non-stabilized. Products are heated to 72° C. for 30 minutes to melt solid products and facilitate dispersion into the artificial eccrine. […] There may be some insoluble media present after dispersion. The dilutions remainder of the procedure is described below in “Analyzing via Soleris”.
• S. epidermidis grown overnight on tryptic soy agar (37 C) • Colony from agar is suspended in 25 ml tryptic soy broth in baffled flask, and incubated overnight on shaking platform (37 C) • 1 ml of overnight culture is diluted into 9 ml of sterile H2O (this serves as the inoculum for experimental formulas) • For testing liquid products, 5 ml of experimental formula transferred to 15 ml conical tube. For testing solid formulations, a 48 or 96-well tissue culture plates is used, with each well containing 100 ul of solidified formulations. Alternately, for solid formulations, collect […] and apply 10-20 g of water and let sit at least 1 hour. […]

[3] = growth media pH 4.2, read-out: MIC S. epi pH 4.2
[4] = growth media pH 7.2, read-out: MIC S. epi pH 7.2

Row | SMILES | MIC [1, 3] | MIC [1, 4] | MIC S. epi pH 4.2 ([1]; growth media pH 4.2) | MIC S. epi pH 7.2 ([1]; growth media pH 7.2) | ability to prevent the growth of bacteria [2] | potential to inhibit bacteria at an acidic pH [1]
1 | O=C(O)c1ccccc1O [salicylic acid, reference compound] |  |  |  |  | strong ability to prevent the growth of bacteria | 
2 | O=C(O)CCCCCCCC(=O)O [Azelaic Acid, reference compound] | 125 µg/mL (≈ 664 µM) | > 500 µg/mL |  |  |  | greatest potential to inhibit bacteria at an acidic pH
3 | O=C(O)c1ccc(O)c(O)c1 [Protocatechuic Acid] | 500 µg/mL (≈ 3240 µM) | > 500 µg/mL |  |  |  | 
4 | CCCCCCCC(=O)Oc1ccccc1C(=O)O [Capryloyl Salicylic Acid] | 4 µg/mL (≈ 15.1 µM) | 125 µg/mL (≈ 473 µM) |  |  |  | greatest potential to inhibit bacteria at an acidic pH

Continued, in another order:

Row | MIC [1, 3] | MIC [1, 4] | MIC S. epi pH 4.2 ([1]; growth media pH 4.2) | MIC S. epi pH 7.2 ([1]; growth media pH 7.2) | SMILES | ability to prevent the growth of bacteria [2] | potential to inhibit bacteria at an acidic pH [1]
5 | > 500 µg/mL | > 500 µg/mL |  |  | O=c1cc(CO)occ1O [Kojic Acid] |  | 
6 | 312 µg/mL (≈ 2050 µM) | > 2500 µg/mL |  |  | O=C(O)C(O)c1ccccc1 (stereo not shown) [Mandelic Acid] | strong ability to prevent the growth of bacteria | greatest potential to inhibit bacteria at an acidic pH
7 |  |  | 15.6 ppm | >2500 ppm | CCCCCCCCC(O)C(=O)O (stereo not shown) [Hydroxycapric Acid] | strong ability to prevent the growth of bacteria | greatest potential to inhibit bacteria at an acidic pH
